Read-outs that look alike come from different tables or passages of the source.
Assays:
[1] = molecular target: T1, F508del (Homo sapiens, UniProt P13569, DEL508-508); assay: 3T3 assay: membrane potential optical assay for F508del correction; assay type: cell-based; settings: F508del NIH 3T3 cells; for Emax: NIH3T3, compared to lumacaftor in combination with acutely added 300 nM Ivacaftor, read-out: 3T3 Max Activity; for EC50: 18-24 hours at 37° C., forskolin, acutely added 300 nM Ivacaftor
T1 construct: expressed in transfected cells
T1 sequence (P13569 with tags, fused parts or gaps DEL508-508): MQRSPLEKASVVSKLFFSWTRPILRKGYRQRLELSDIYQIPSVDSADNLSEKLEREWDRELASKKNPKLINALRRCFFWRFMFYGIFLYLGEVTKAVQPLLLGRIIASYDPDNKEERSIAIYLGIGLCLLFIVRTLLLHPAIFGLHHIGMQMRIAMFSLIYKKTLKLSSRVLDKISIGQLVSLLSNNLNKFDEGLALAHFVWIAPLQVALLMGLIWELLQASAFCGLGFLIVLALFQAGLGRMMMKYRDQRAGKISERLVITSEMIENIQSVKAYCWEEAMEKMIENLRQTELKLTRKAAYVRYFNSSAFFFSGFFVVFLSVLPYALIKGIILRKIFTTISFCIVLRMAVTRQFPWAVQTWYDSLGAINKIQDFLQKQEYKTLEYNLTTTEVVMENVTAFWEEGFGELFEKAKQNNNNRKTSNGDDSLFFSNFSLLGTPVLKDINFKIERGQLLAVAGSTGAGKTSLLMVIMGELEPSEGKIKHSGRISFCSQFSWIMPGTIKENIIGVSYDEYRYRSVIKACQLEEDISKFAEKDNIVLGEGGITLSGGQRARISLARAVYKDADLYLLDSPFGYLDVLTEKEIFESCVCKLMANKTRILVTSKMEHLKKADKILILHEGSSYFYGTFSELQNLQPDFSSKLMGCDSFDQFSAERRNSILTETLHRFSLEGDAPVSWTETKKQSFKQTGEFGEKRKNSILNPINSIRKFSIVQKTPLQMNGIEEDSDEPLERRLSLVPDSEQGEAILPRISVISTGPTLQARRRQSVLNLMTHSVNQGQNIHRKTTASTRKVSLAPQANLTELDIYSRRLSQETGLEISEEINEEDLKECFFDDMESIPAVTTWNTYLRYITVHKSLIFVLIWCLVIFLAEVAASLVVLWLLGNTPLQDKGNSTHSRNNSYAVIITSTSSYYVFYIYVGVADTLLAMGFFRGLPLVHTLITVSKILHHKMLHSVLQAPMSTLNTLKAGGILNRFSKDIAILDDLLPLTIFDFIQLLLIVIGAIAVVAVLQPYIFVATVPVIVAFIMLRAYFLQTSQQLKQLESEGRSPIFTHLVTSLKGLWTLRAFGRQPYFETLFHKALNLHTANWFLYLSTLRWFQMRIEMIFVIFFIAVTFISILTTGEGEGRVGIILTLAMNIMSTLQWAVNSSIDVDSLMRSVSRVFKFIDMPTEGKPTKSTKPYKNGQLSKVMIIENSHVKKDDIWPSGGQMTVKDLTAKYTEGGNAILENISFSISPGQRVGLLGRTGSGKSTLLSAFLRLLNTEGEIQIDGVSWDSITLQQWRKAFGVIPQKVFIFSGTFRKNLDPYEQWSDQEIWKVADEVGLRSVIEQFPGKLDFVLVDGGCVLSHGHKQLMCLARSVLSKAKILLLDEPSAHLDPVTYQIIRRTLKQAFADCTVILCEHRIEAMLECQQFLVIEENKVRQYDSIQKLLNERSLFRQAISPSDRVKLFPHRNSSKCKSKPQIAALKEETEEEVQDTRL
Excerpt: 1. Membrane Potential Optical Methods for Assaying F508del Modulation Properties of Compounds
The assay utilizes fluorescent voltage sensing dyes to measure changes in membrane potential using a fluorescent plate reader (e.g., FLIPR III, Molecular Devices, Inc.) as a readout for increase in functional F508del in NIH 3T3 cells. The driving force for the response is the creation of a chloride ion gradient in conjunction with channel activation by a single liquid addition step after the cells have previously been treated with compounds and subsequently loaded with a voltage sensing dye.
2. Identification of Corrector Compounds
To identify correctors of F508del, a single-addition HTS assay format was developed. This HTS assay utilizes fluorescent voltage sensing dyes to measure changes in membrane potential on the FLIPR III as a measurement for increase in gating (conductance) of F508del in F508del NIH 3T3 cells. The F508del NIH 3T3 cell cultures were incubated with the corrector compounds at a range of concentrations for 18-24 hours at 37° C., and subsequently loaded with a redistribution dye. The driving force for the response is a Cl^− ion gradient in conjunction with channel activation with forskolin in a single liquid addition step using a fluorescent plate reader such as FLIPR III.
Bath Solution #1: (in mM) NaCl 160, KCl 4.5, CaCl2) 2, MgCl2 1, HEPES 10, pH 7.4 with NaOH.
Chloride-free bath solution: Chloride salts in Bath Solution #1 (above) are substituted with gluconate salts.
NIH3T3 mouse fibroblasts stably expressing F508del are used for optical measurements of membrane potential. The cells are maintained at 37° C. in 5% CO2 and 90% humidity in Dulbecco's modified Eagle's medium supplemented with 2 mM glutamine, 10% fetal bovine serum, 1× NEAA, b-ME, 1×pen/strep, and 25 mM HEPES in 175 cm^2 culture flasks. For all optical assays, the cells were seeded at ˜20,000/well in 384-well Matrigel-coated plates. For the correction assays, the cells are cultured at 37° C. with and without compounds for 16-24 hours.

[2] = molecular target: CFTR (Homo sapiens, UniProt P13569); assay: Membrane potential dye, Enteroid Assay A; assay type: cell-based; settings: for Ent. A Max Activity: chloride transport as % of triple combination control (Enteroid Assay A); for EC50: human enteroid cells, 18-24 hours, acute 10 μM forskolin and 300 nM ivacaftor, read-out: Ent. A EC50
CFTR, sequence (P13569 with tags, fused parts or gaps DEL508-508): as above
Summary of the method: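 Human intestinal enteroids incubated 18-24 h at 37 °C with test compound, then loaded with 20 μM methyl oxonol (with CaCC inhibitors). Chloride transport triggered in chloride-free buffer with 10 μM forskolin, 100 μM IBMX, 300 nM Compound III; fluorescence read 15 min, expressed as % of a triple-combination corrector/potentiator control.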

SMILES | Emax ([1]; Table 7) [%] | EC50 ([1]; Table 7) [µM] | Ent. A Max Activity ([2]; Table 7) | EC50 ([2]; Table 7) [µM] | Emax ([1]; Table 6) [%] | EC50 ([1]; Table 6) [µM] | Ent. A Max Activity ([2]; Table 6) | EC50 ([2]; Table 6) [µM]
Cc1cccc(C)c1-c1cc2nc(n1)NS(=O)(=O)c1cccc(c1)C(=O)N(C)C[C@H](c1ccc(C(C)(C)C)cc1)O2 (single isomer, unassigned) [Compound 11, 10-(4-tert-Butylphenyl)-6-(2,6-dimethylphenyl)-12-methyl-2,2-dioxo-9-oxa-2λ^6-thia-3,5,12,19-tetrazatricyclo[12.3.1.14,8]nonadeca-1(18),4(19),5,7,14,16-hexaen-13-one] | > 60 | < 1 | +++ (+++ is >60%) | < 1 |  |  |  | 
Cc1cccc(C)c1-c1cc2nc(n1)NS(=O)(=O)c1cccc(c1)C(=O)N(CCC1CCOCC1)[C@H](CCC1(C(F)(F)F)CC1)CO2 (single isomer, unassigned) [Compound 72, 6-(2,6-Dimethylphenyl)-2,2-dioxo-12-(2-tetrahydropyran-4-ylethyl)-11-[2-[1-(trifluoromethyl)cyclopropyl]ethyl]-9-oxa-2λ^6-thia-3,5,12,19-tetrazatricyclo[12.3.1.14,8]nonadeca-1(18),4(19),5,7,14,16-hexaen-13-one] |  |  |  |  | > 60 | < 1 | +++ (+++ is >60%) | < 1
Cc1cccc(C)c1-c1cc2nc(n1)NS(=O)(=O)c1cccc(c1)C(=O)N(C)C[C@@H](c1ccc(C(C)(C)C)cn1)O2 (single isomer, unassigned) [Compound 102, 10-(5-tert-butyl-2-pyridyl)-6-(2,6-dimethylphenyl)-12-methyl-2,2-dioxo-9-oxa-2λ^6-thia-3,5,12,19-tetrazatricyclo[12.3.1.14,8]nonadeca-1(18),4(19),5,7,14,16-hexaen-13-one] | > 60 | < 1 | + (+ is <30%) | 1 to 3 |  |  |  | 
Cc1cccc(C)c1-c1cc2nc(n1)NS(=O)(=O)c1cccc(c1)C(=O)N(C)C[C@H](c1ccc(C(C)(C)C)cn1)O2 (single isomer, unassigned) [Compound 103, 10-(5-tert-butyl-2-pyridyl)-6-(2,6-dimethylphenyl)-12-methyl-2,2-dioxo-9-oxa-2λ^6-thia-3,5,12,19-tetrazatricyclo[12.3.1.14,8]nonadeca-1(18),4(19),5,7,14,16-hexaen-13-one] | > 60 | < 1 | +++ (+++ is >60%) | < 1 |  |  |  | 
Cc1cccc(C)c1-c1cc2nc(n1)NS(=O)(=O)c1cccc(c1)C(=O)N(C)[C@H](CC(C)C)C(c1ccc(C(C)(C)C)cn1)O2 (stereo in doubt) [Compound 1, (10S,11R)-10-(5-tert-butyl-2-pyridyl)-6-(2,6-dimethylphenyl)-11-isobutyl-12-methyl-2,2-dioxo-9-oxa-2λ^6-thia-3,5,12,19-tetrazatricyclo[12.3.1.14,8]nonadeca-1(18),4(19),5,7,14,16-hexaen-13-one] |  |  |  |  | > 60 | < 1 | +++ (+++ is >60%) | < 1
Cc1cccc(C)c1-c1cc2nc(n1)NS(=O)(=O)c1cccc(c1)C(=O)N(Cc1ccccc1)CC(c1ccccc1)O2 (stereo in doubt) [Compound 18, (10R)-12-Benzyl-6-(2,6-dimethylphenyl)-2,2-dioxo-10-phenyl-9-oxa-2λ^6-thia-3,5,12,19-tetrazatricyclo[12.3.1.14,8]nonadeca-1(18),4(19),5,7,14,16-hexaen-13-one] |  |  |  |  | > 60 | < 1 | +++ (+++ is >60%) | < 1
Cc1cccc(C)c1-c1cc2nc(n1)NS(=O)(=O)c1cccc(c1)C(=O)N(Cc1ccccc1)CC(Cc1ccccc1)O2 (stereo in doubt) [Compound 106, (10R)-10,12-dibenzyl-6-(2,6-dimethylphenyl)-9-oxa-2λ^6-thia-3,5,12,19-tetraazatricyclo[12.3.1.14,8]nonadeca-1(17),4(19),5,7,14(18),15-hexaene-2,2,13-trione] |  |  |  |  | > 60 | < 1 | +++ (+++ is >60%) | < 1
Cc1cccc(C)c1-c1cc2nc(n1)NS(=O)(=O)c1cccc(c1)CN(Cc1ccnnc1)[C@H](CC(C)C)CO2 [Compound 47, (11R)-6-(2,6-dimethylphenyl)-11-(2-methylpropyl)-12-[(pyridazin-4-yl)methyl]-9-oxa-2λ^6-thia-3,5,12,19-tetraazatricyclo[12.3.1.14,8]nonadeca-1(17),4,6,8(19),14(18),15-hexaene-2,2-dione] | > 60 | < 1 | +++ (+++ is >60%) | < 1 |  |  |  | 
Cc1cccc(C)c1-c1cc2nc(n1)NS(=O)(=O)c1cccc(c1)C(=O)N(C)[C@H](CC(C)C)CO2 [Compound 71, (11R)-6-(2,6-Dimethylphenyl)-12-methyl-11-(2-methylpropyl)-9-oxa-2λ^6-thia-3,5,12,19-tetraazatricyclo[12.3.1.14,8]nonadeca-1(18),4(19),5,7,14,16-hexaene-2,2,13-trione] |  |  |  |  | > 60 | < 1 | +++ (+++ is >60%) | < 1
Cc1cccc(C)c1-c1cc2nc(n1)NS(=O)(=O)c1cccc(c1)C(=O)N(Cc1ccc(C#N)cc1)[C@H](CC(C)C)CO2 [Compound 78, 4-[[(11R)-6-(2,6-Dimethylphenyl)-11-isobutyl-2,2,13-trioxo-9-oxa-2λ^6-thia-3,5,12,19-tetrazatricyclo[12.3.1.14,8]nonadeca-1(18),4(19),5,7,14,16-hexaen-12-yl]methyl]benzonitrile] |  |  |  |  | > 60 | < 1 | +++ (+++ is >60%) | < 1
Cc1cccc(C)c1-c1cc2nc(n1)NS(=O)(=O)c1cccc(c1)C(=O)N(CCC1CCOCC1)[C@H](CC(C)C)CO2 [Compound 79, (11R)-6-(2,6-Dimethylphenyl)-11-isobutyl-2,2-dioxo-12-(2-tetrahydropyran-4-ylethyl)-9-oxa-2λ^6-thia-3,5,12,19-tetrazatricyclo[12.3.1.14,8]nonadeca-1(18),4(19),5,7,14,16-hexaen-13-one] |  |  |  |  | > 60 | < 1 | +++ (+++ is >60%) | < 1
Cc1cccc(C)c1-c1cc2nc(n1)NS(=O)(=O)c1cccc(c1)C(=O)N(CCO)[C@H](CC(C)C)CO2 [Compound 80, (11R)-6-(2,6-Dimethylphenyl)-12-(2-hydroxyethyl)-11-isobutyl-2,2-dioxo-9-oxa-2λ^6-thia-3,5,12,19-tetrazatricyclo[12.3.1.14,8]nonadeca-1(18),4(19),5,7,14,16-hexaen-13-one] |  |  |  |  | > 60 | < 1 | +++ (+++ is >60%) | < 1
Cc1cccc(C)c1-c1cc2nc(n1)NS(=O)(=O)c1cccc(c1)C(=O)N(CCC1CCN(C(C)C)CC1)[C@H](CC(C)C)CO2 [Compound 85, (11R)-6-(2,6-Dimethylphenyl)-11-isobutyl-12-[2-(1-isopropyl-4-piperidyl)ethyl]-2,2-dioxo-9-oxa-2λ^6-thia-3,5,12,19-tetrazatricyclo[12.3.1.14,8]nonadeca-1(18),4(19),5,7,14,16-hexaen-13-one] | > 60 | < 1 | +++ (+++ is >60%) | < 1 |  |  |  | 
Cc1cccc(C)c1-c1cc2nc(n1)NS(=O)(=O)c1cccc(c1)C(=O)N(C)[C@H](C)[C@H](c1ccc(C(C)(C)C)cc1)O2 [Compound 338] |  |  |  |  | > 60 | < 1 | + (+ is <30%) | 
Cc1cccc(C)c1-c1cc2nc(n1)NS(=O)(=O)c1cccc(c1)C(=O)N(CCC(C)(C)C)C(C(F)(F)F)CO2 (centres unmarked) [Compound 373] | > 60 | 1 to 3 |  |  |  |  |  | 
Cc1cccc(C)c1-c1cc2nc(n1)NS(=O)(=O)c1cccc(c1)C(=O)N(C)C[C@@H](c1ccc(C3CC3)cc1)O2 [Compound 668] | > 60 | < 1 |  |  |  |  |  | 

Source: patent US20240150377A1, “MODULATORS OF CYSTIC FIBROSIS TRANSMEMBRANE CONDUCTANCE REGULATOR” (VERTEX PHARMACEUTICALS INCORPORATED, priority 2020, published 2024)
